How the values were obtained:
[1] = cited from earlier work; for Degree of Sweetness: sucrose per unit concentration Brix 1 defined as 1
[2] = target: T1, sweet taste receptor (T1R2/T1R3) (Homo sapiens, UniProt Q7RTX0+Q8TE23); assay: Sensory evaluation of remaining sweetness intensity of sweet substances with lactisole, relative to sucrose + lactisole; conditions: 100 ppm lactisole; solution 15-1 (12 w/v % sucrose + 100 ppm lactisole) = 100%; n=4
T1 sequence (Q8TE23 20-839): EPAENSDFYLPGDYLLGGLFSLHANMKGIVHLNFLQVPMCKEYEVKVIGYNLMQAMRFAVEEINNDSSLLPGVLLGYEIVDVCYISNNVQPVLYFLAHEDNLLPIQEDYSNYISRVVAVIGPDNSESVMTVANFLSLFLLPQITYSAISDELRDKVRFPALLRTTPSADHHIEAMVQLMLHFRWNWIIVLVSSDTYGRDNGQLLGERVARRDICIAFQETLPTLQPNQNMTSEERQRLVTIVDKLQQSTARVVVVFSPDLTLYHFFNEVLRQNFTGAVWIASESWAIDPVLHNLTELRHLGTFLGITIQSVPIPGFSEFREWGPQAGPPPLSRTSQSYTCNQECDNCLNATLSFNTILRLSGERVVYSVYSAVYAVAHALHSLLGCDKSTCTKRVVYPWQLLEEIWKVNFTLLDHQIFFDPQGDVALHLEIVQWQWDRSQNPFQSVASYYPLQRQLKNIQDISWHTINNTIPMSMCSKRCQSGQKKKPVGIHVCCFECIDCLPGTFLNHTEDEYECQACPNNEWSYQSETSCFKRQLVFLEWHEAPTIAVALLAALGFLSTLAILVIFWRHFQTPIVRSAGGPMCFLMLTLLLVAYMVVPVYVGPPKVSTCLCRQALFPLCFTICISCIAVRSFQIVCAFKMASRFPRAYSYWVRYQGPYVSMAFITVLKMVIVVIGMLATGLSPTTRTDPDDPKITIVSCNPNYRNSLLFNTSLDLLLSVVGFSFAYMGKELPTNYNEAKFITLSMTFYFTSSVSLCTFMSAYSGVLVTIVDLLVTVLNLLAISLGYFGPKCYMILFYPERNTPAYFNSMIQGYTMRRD
T1 sequence (Q7RTX0 21-852): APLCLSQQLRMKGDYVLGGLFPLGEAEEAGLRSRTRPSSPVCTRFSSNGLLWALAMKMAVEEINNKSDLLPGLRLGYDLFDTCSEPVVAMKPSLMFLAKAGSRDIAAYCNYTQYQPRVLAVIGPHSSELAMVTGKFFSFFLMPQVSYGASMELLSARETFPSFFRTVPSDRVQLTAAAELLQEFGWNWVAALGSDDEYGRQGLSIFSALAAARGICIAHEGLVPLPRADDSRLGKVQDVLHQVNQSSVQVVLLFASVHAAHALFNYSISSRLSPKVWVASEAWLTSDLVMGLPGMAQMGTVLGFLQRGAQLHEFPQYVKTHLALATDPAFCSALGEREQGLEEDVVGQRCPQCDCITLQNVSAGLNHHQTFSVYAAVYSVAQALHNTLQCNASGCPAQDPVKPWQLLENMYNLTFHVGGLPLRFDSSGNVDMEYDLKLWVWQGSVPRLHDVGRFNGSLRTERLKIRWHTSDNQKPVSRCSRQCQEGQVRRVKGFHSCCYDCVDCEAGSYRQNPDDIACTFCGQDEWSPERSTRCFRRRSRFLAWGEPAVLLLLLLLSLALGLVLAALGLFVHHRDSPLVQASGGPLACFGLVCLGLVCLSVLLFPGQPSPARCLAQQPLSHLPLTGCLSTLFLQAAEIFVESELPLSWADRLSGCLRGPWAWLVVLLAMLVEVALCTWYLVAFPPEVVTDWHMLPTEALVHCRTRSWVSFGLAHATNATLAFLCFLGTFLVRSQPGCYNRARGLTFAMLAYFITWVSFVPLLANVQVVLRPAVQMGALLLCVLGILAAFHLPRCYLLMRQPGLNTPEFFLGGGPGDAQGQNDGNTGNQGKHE

[3] = target: T1, sweet taste receptor (T1R2/T1R3); assay: Sensory evaluation (spit test, VAS scale) of sweetness intensity with lactisole, relative to lactisole-free solution; format: in vivo; parameters: The sweet taste receptor is expressed naturally on the cell surface of each taste cell; from tissue; host or cells: tongue (taste cells) of living human panelists; spit test; conditions: remaining sweetness with 100 ppm lactisole expressed as sucrose solution

| SMILES | Relative sweetness intensity (%) [2] | sweetness level corresponding to sucrose solution [3] | Degree of Sweetness [1] | sweetness intensity relative to the sweetness intensity of sucrose ([1]; estimate used to design sample solutions) |
| --- | --- | --- | --- | --- |
| O=C[C@H](O)[C@H](O)[C@H](O)[C@H](O)CO [Allose] |  |  | 0.8 |  |
| O=C(CO)[C@H](O)[C@H](O)[C@H](O)CO [D-allulose] |  |  | 0.7 |  |
| OC[C@H]1O[C@H](O[C@H]2[C@H](O)[C@@H](O)[C@H](O)O[C@@H]2CO)[C@H](O)[C@@H](O)[C@@H]1O [Maltose] |  |  | 0.4 |  |
| OC[C@H]1O[C@H](O[C@]2(CCl)O[C@H](CCl)[C@@H](O)[C@@H]2O)[C@H](O)[C@@H](O)[C@H]1Cl [sucralose] |  | 0.144 w/v % |  | 600 times |

Second part, led by results:

| Relative sweetness intensity (%) [2] | sweetness level corresponding to sucrose solution [3] | SMILES | Degree of Sweetness [1] | sweetness intensity relative to the sweetness intensity of sucrose ([1]; estimate used to design sample solutions) |
| --- | --- | --- | --- | --- |
| ≥ 50% |  | O=C(CO)[C@@H](O)[C@@H](O)[C@H](O)CO [D-tagatose] | 0.9 |  |
|  | 2.0 w/v % | OC[C@H]1O[C@@](CO)(O[C@H]2O[C@H](CO)[C@@H](O)[C@H](O)[C@H]2O)[C@@H](O)[C@@H]1O [sucrose] | 1 |  |

— patent publication US20210084950A1, “SWEETENING COMPOSITION INDUCING SWEETNESS RESPONSE THROUGH MOLECULE OTHER THAN SWEET TASTE RECEPTOR (T1R2/T1R3)” (SUNTORY HOLDINGS LIMITED, priority 2018, published 2021)
